Columns and labels:
[1] = tested on: VEGF-induced BRB breakdown (retinal leakage); test: VEGF-induced blood retinal barrier (BRB) breakdown, scanning ocular fluorophotometry of fluorescein leakage; format: in vivo, rabbit; settings: for Inhibition of VEGF-induced BRB breakdown (fluorescein leakage into posterior segment): rabbit eye, 1 mg (100 μl of 10 mg/ml suspension) intravitreal, then intravitreal VEGF, read 48 h later; for Block of VEGF-induced BRB breakdown (retinal leakage): corticosteroid administered systemically or intravitreally
Experimental: (§1) Recombinant vascular endothelial growth factor (VEGF) was obtained from a supplier (R&D Systems). Female Dutch Belt rabbits were anaesthetized with isoflurane inhalation and topical 0.5% proparacaine hydrochloride, and intravitreal injection of one eye with 500 ng VEGF in sterile phosphate buffered saline (PBS) containing 0.1% bovine serum albumin was performed using a 28 guage ½ inch needle. The other eye is given the same volume of the vehicle, without the VEGF.
(§2) The extent of VEGF-induced BRB and BAB breakdown of the blood retinal barrier and the blood aqueous barrier was measured by scanning ocular fluorophotemetry (Fluorotron Master, Ocumetrics Inc.); at various times following intravitreal injection. In this model a fluorescent label is administered intravenously, following by determination of the amount of fluorescenin in the anterior and posterior segment and an indication of iridial and retinal leakage, respectively.
(§3) Sodium fluorescein in 1 ml saline was injected via the marginal ear vein at a concentration of 50 mg/kg, and ocular fluorescein levels in the vitreoretinal chamber and the anterior chamber was determined 50 minutes later.
(§4) Ten milligrams of each compound is added to 1 ml of sterile phosphate-buffered saline (PBS; ph 7.4). At day 0, 100 ml of a 10 mg/ml suspension of each steroid is injected into the vitreous of a rabbit eye. The PBS vehicle is injected into the other eye. VEGF is then injected at a pre-determined time (one month) thereafter, and BRB and BAB breakdown were measured by scanning ocular fluorophotometry 48 hrs later as described in Edelman et al., EXP.

[2] = Treatment of cystic macular edema with a GD implant (Example 4); format: in vivo, human
Experimental: A person diagnosed with cystic macular edema treated by administration of a biodegradable drug delivery system administered to each eye of the patient. […] A similar implant is administered subconjunctivally to the patient's right eye. […] No increase in intraocular pressure is seen one week after administration.

[3] = Treatment of wet ARMD with a GD composition (Example 5); format: in vivo, human; settings: person, intravitreal 100 μl hyaluronic acid solution with about 1000 μg crystals; within one month
Experimental: A person with wet age-related macular degeneration is treated with an intravitreal injection of 100 μl of a hyaluronic acid solution containing about 1000 μg of fluticasone propionate crystals in suspension.

[4] = tested on: VEGF-induced BAB breakdown (iris leakage); test: VEGF-induced blood aqueous barrier (BAB) breakdown, scanning ocular fluorophotometry of fluorescein leakage; format: in vivo, rabbit; settings: for Inhibition of VEGF-induced BAB breakdown (fluorescein leakage into anterior segment): rabbit eye, 1 mg (100 μl of 10 mg/ml suspension) intravitreal, then intravitreal VEGF, read 48 h later; for Block of VEGF-induced BAB breakdown (iris leakage): corticosteroid administered systemically or intravitreally
Experimental: as §1, §2, §3, §4

[5] = rabbit, 500 ng VEGF intravitreal, 48 h, 50 min after i.v. fluorescein

Compound | Inhibition of VEGF-induced BRB breakdown (fluorescein leakage into posterior segment) [1] | Block of VEGF-induced BRB breakdown (retinal leakage) ([1]; rabbit) | Inhibition of VEGF-induced BAB breakdown (fluorescein leakage into anterior segment) [4] | Block of VEGF-induced BAB breakdown (iris leakage) ([4]; rabbit) | further results
CCC(=O)OCC(=O)[C@@]1(OC(=O)CC)[C@@H](C)C[C@H]2[C@@H]3CCC4=CC(=O)C=C[C@]4(C)[C@@]3(Cl)[C@@H](O)C[C@@]21C [Beclomethasone dipropionate, beclomethasone dipropionate] | – | – | – | – | Inhibition of VEGF-induced BRB breakdown (fluorescein leakage into posterior segment) ([1]; listed as beclomethasone 17,21-dipropionate): completely blocks; Appearance of retina ([2]; person, implant of about 1000 μg PLGA and about 1000 μg drug, intravitreal left eye, subconjunctival right eye, about 3 months after surgery): appears normal; Degeneration of the optic nerve ([2]; same patient, about 3 months after surgery): appears to be reduced; Intraocular pressure ([2]; same patient, one week after administration): No increase
CCC(=O)O[C@]1(C(=O)SCF)[C@H](C)C[C@H]2[C@@H]3C[C@H](F)C4=CC(=O)C=C[C@]4(C)[C@@]3(F)[C@@H](O)C[C@@]21C [Fluticasone propionate, fluticasone propionate] | completely blocks | – | – | – | Rate of neovascularization and related inflammation [3]: acceptable reduction
C[C@H]1C[C@H]2[C@@H]3CCC4=CC(=O)C=C[C@]4(C)[C@@]3(Cl)[C@@H](O)C[C@]2(C)[C@@]1(O)C(=O)CO [beclomethasone] | inhibited | completely blocked | inhibited | completely blocked | –
VEGF | – | – | – | – | Increase in fluorescein contained in the vitreous versus normal untreated eyes [1, 5]: approximately 18 fold; Increase in fluorescein contained in the aqueous versus normal untreated eyes [4, 5]: approximately 6 fold
CC1(C)O[C@@H]2C[C@H]3[C@@H]4CCC5=CC(=O)C=C[C@]5(C)[C@@]4(F)[C@@H](O)C[C@]3(C)[C@]2(C(=O)CO)O1 [Triamcinolone acetonide, triamcinolone acetonide] | completely inhibited | completely blocked | completely inhibited | completely blocked | –
